Source: US5856517A, “Substituted pyrroles” (Hoffmann-La Roche Inc., priority 1997, dated 1999)
pIC50: −log10 of the molar value.

Tests used:
[1] = tested on: epithelial breast carcinoma cell line MDAMB-435; experiment: Antiproliferative activity, growth of MDAMB-435 cells (MTT); format: cell-based; conditions: Homo sapiens, MDA-MB-435, 120 h, MDAMB435, day 5 post-drug addition, 0.1% DMSO, * = average of two separate experiments
Protocol: (§1) The epithelial breast carcinoma cell line, MDAMB-435, and the colon carcinoma cell line, SW480, were purchased from ATCC (American Type Cell Culture Collection) and were grown in culture in medium as recommended by ATCC. For analysis of the effect of various compounds on growth of these cells, the cells were plated at a concentration of 1500 cells/well in a 96 well tissue culture plate ("test plate"). The day after the cells were plated, the compounds to be analyzed were dissolved in 100% DMSO (dimethyl sulfoxide) to yield at 10 mM stock solution. Each compound was diluted in H2 O to 1 mM and was added to triplicate wells in the first row of a 96 well master plate which contains medium to yield a final concentration of 40 μM. The compounds were then serially diluted in medium in the "master plate". The diluted compound(s) were then transferred to test plates containing cells. A row of vehicle "control cells" received DMSO. The final concentration of DMSO in each well was 0.1%. At day 5 post-drug addition, the plates containing MDA-MB435 cells were analyzed as follows. Plates containing SW480 cells were analyzed at day 7 post drug addition as follows.
(§2) MTT (3-(4-5methylthiazole-2-yl)-2,5-diphenyl tetrazolium bromide; thiazolyl blue) was added to each well to yield a final concentration of 1 mg/ml. The plate was then incubated at 37° C. for 21/2-3 hours. The MTT containing medium was then removed and 50 μl of 100% ethanol was added to each well to dissolve the formazan. The absorbences were then read using an automated plate reader (Bio-tek microplate reader). IC50 's were calculated using the Reed and Munsch equation, see Am. J. Hygiene Vol. 27 pgs. 493-497, 1938.

[2] = tested on: colon carcinoma cell line SW480; experiment: Antiproliferative activity, growth of SW480 cells (MTT); format: cell-based; conditions: Homo sapiens, 168 h, day 7 post drug addition, 0.1% DMSO, * = average of two separate experiments
Protocol: as §1, §2

pIC50 [1] | pIC50 [2] | Compound
7.52 | 8.10 | Cn1cc(C2=C(c3cn(C)c4cc(C#N)ccc34)C(=O)NC2=O)c2ccccc21 [Ex 1, 1-methyl-3-[4-(1-methyl-1H-indol-3-yl)-2,5-dioxo-2,5-dihydro-1H-pyrrol-3-yl]-1H-indole-6-carbonitrile]
6.52 | 6.08 | CC(=O)OCc1ccc2c(C3=C(c4cn(C)c5ccccc45)C(=O)NC3=O)cn(C)c2c1 [Ex 3, Acetic acid 1-methyl-3-[4-(1-methyl-1H-indol-3-yl)-2,5-dioxo-2,5-dihydro-1H-pyrrol-3-yl]-1H-indol-6-yl methyl ester]
8.00 | 8.00 | COC(=O)c1ccc2c(C3=C(c4cn(C)c5ccccc45)C(=O)NC3=O)cn(C)c2c1 [Ex 4a, 1-methyl-3-[4-(1-methyl-1H-indol-3-yl)-2,5-dioxo-2,5-dihydro-1H-pyrrol-3-yl]-1H-indole-6-carboxylic acid methyl ester]
7.49 | 7.27 | Cn1cc(C2=C(c3cn(C)c4cc(C=O)ccc34)C(=O)NC2=O)c2ccccc21 [Ex 4b, 1-methyl-3-[4-(1-methyl-1H-indol-3-yl)-2,5-dioxo-2,5-dihydro-1H-pyrrol-3-yl]-1H-indole-6-carboxaldehyde]
7.15 | 6.96 | COCc1ccc2c(C3=C(c4cn(C)c5ccccc45)C(=O)NC3=O)cn(C)c2c1 [Ex 4c, 3-(6-Methoxymethyl-1-methyl-1H-indol-3-yl)-4-(1-methyl-1H-indol-3-yl)-pyrrole-2,5-dione]
6.38 | 6.46 | Cn1cc(C2=C(c3cn(C)c4cc(CO)ccc34)C(=O)NC2=O)c2ccccc21 [Ex 5, 3-(6-hydroxymethyl-1-methyl-1H-indol-3-yl)-4-(1-methyl-1H-indol-3-yl)pyrrole-2,5-dione]
6.15 |  | Cn1cc(C2=C(c3cn(C)c4cc(C(N)=O)ccc34)C(=O)NC2=O)c2ccccc21 [Ex 6, 1-Methyl-3-[4-(1-methyl-1H-indol-3-yl)-2,5-dioxo-2,5-dihydro-1H-pyrrol-3-yl]-1H-indole-6-carboxylic acid amide]
